Reference: patent publication US12655114B2, “Ionizable lipid compounds and lipid nanoparticle compositions” (SunVax mRNA Therapeutics Inc., priority 2022, dated 2026)

Tests used:
[1] = tested on: 293T cells; experiment: GFP expression in 293T cells treated with LNP-SamRNA-GFP (formulation optimization, FACS); assay type: cell-based; settings: LNPs with self-amplifying mRNA encoding GFP, FIG. 22
Procedure: (§1) The LNPs containing SamRNA-GFP (or SamRNA-LUC, 100 ng/well) were added into 96-well plate which was pre-seeded with 293T, C2C12 or MC38 cells. After 24 hours incubation at 37° C. and 5% CO2, the luciferase SamRNA transfection efficiency was measured by plate reader (Perkin Elmer Envision 2104). The GFP SamRNA transfection efficiency was measured by flow cytometry (BD FACSymphony™ A5 SE Cell Analyzer).
An orthogonal experimental design was applied to optimize the formulation of synthesized ionizable lipids, DOPE, Chol and DMG-PEG2000 that encapsulated samRNA-GFP. Library A contained 16 formulations with four factors and four levels.
In Library A, the 293T cells were treated in different amounts of LNPs ([…] of SamRNA-GFP). The delivery efficiency of LNPs-SamRNA-GFP of A-6, A-9, A-10, A-13 show more than 60% GFP expression when the 293T cells were transfected with 50, 25 and 12.5 ng of mRNA (FIG. 14). The samRNA-GFP delivery efficiency increased with the molar ratios of Chol and DOPE increase, while increased the molar ratios of P6A2 and DMG-PEG2000 reduced the samRNA-GFP delivery efficiency (FIG. 15).
A second orthogonal experimental design was applied to optimize the formulation of LNPs. In Library B, the 293T cells were treated with 50 or 12.5 ng of samRNA-GFP (FIG. 16).

[2] = tested on: 293T, C2C12 or MC38 cells; experiment: SamRNA-GFP transfection efficiency of LNPs by flow cytometry; assay type: cell-based; settings: LNP-SamRNA-GFP formulated with the lipid; FIGS. 4-6, 8-10
Procedure: The delivery system used to deliver the GFP-mRNA transfect are LNPs formulated using 12 individual ionizable lipids synthesized by three-component reactions. To generate the LNP encapsulated self-amplifying mRNA, the ionizable lipids of the present disclosure were dissolved in ethanol and directly added into an ethanol solution containing DOPE, cholesterol and DMG-PEG2000 at predetermined molar ratio. Self-amplifying mRNA encoding GFP sequences aqueous solution was mixed and the LNP mixture (100 ng mRNA) was added to a 96-well plate pre-seeded with MC38, C2C12 or 293T cells. The cells were incubated at 5% CO2 and 37° C. overnight. The GFP mRNA transfection efficiency was measured by flow cytometry.
E6, an ionizable lipid of the disclosure, was formulated into LNPs with 1,2-Dioleoyl-sn-glycero-3-phosphoethanolamine (DOPE), cholesterol (Chol), methoxypolyethylene glycol (DMG-PEG2000) with a mole ratio of 50/10/38.5/1.5 (ionizable lipid/DOPE/Chol/DMG-PEG2000) encapsulated self-amplifying mRNA or DNA encoding with reporter genes either green fluorescent protein (samRNA-GFP or DNA-CMV-EGFP) or firefly Luciferase (samRNA-LUC). Formulations containing 100 ng of self-amplifying mRNA were incubated to a well of 96-well plate with 60-70% confluent of HEK293, or C2C12, or MC38 cells (FIGS. 10, 23). The transfection efficiency was determined by flow cytometry for detection of GFP, or plate reader for detection of luciferase. LNP formulated using FDA approved ionizable lipid MC3 was used as a control (FIG. 10).
as §1

SMILES: CCCCCCCCCCCCCCN(CCCCCCCCCCCCCC)CCC(=O)OC1CC(OC(=O)CCN(CCCCCCCCCCCCCC)CCCCCCCCCCCCCC)CC(OC(=O)CCN(CCCCCCCCCCCCCC)CCCCCCCCCCCCCC)C1 (stereo not shown) [T7]
- delivery efficacies compared with FDA approved ionizable lipid MC3 [1]: better delivery efficacies than FDA approved ionizable lipid MC3

SMILES: CCCCCCCCCCCCCCN(CCCCCCCCCCCCCC)C(c1cccs1)c1ccccc1O (stereo not shown) [TP4G11, 2-((ditetradecylamino)(thiophen-2-yl)methyl)phenol]
- delivery of mRNA-GFP compared with FDA approved ionizable lipid MC3 [2]: more effectively deliver mRNA-GFP

SMILES: CCCCCCCCCCCCC(CCCCCCCCCC)CNCCC(=O)OC1CC(OC(=O)CCNCC(CCCCCCCCCC)CCCCCCCCCCCC)CC(OC(=O)CCNCC(CCCCCCCCCC)CCCCCCCCCCCC)C1 (stereo not shown) [P7]
- delivery efficacies compared with FDA approved ionizable lipid MC3 [1]: better delivery efficacies than FDA approved ionizable lipid MC3

SMILES: CCCCCCCCCN(CCCCCCCCC)CCC(=O)N1CN(C(=O)CCN(CCCCCCCCC)CCCCCCCCC)CN(C(=O)CCN(CCCCCCCCC)CCCCCCCCC)C1 [E2, 1,1′,1″-(1,3,5-triazinane-1,3,5-triyl)tris(3-(dinonylamino)propan-1-one)]
- delivery of mRNA-GFP compared with FDA approved ionizable lipid MC3 [2]: more effectively deliver mRNA-GFP
